Test [1] has as its system Basal cells (bronchospheres). The experiment in a line: bronchosphere 3D Matrigel culture assay. It counts as cell-based, human. The settings on record: for SOX2 (basal cell marker) expression, immunoblot / acetylated α-tubulin (ciliated cell marker) expression, immunoblot: bronchosphere lysates. As to the method: The effect of Abl kinase inhibition on the development of bronchospheres in a 3D Matrigel culture assay was also evaluated. Basal cells were cultured in Matrigel at passage 1 and treated with vehicle control, the Abl kinase inhibitor, GNF5, or the Abl kinase activator, DPH, for three days starting two days after plating the cells.
(In general: A western blot detects proteins with antibodies after separation by electrophoresis.)

Test [2] has as its system primary human bronchial epithelial cells (HBECs). The test can be described thus: basal cell differentiation of primary HBECs in air-liquid interface (ALI) cultures. Format: cell-based. The settings on record: 7 days after plating; vs vehicle. From the text: Cell Culture. Primary human bronchial epithelial cells were isolated as previously described (Fulcher M L & Randell S H (2013) Methods Mol Biol 945:109-121) and passage 1 cells were derived from human lungs unsuitable for transplantation from non-smoker organ donors without pre-existing lung disease under protocol #03-1396 approved by the University of North Carolina at Chapel Hill Biomedical Institutional Review Board. Informed consent was obtained from authorized representatives of all organ donors. 30,000 cells were plated into each well of 6.5 mm polyester inserts containing 0.4 μm pores (Sigma-CLS3470) coated with Type IV human placenta collagen (Sigma-C7521). 100 μl of ALI medium was added to the insert and 600 μl of ALI medium was added to the well at the time of plating. At Day 3, ALI medium from the insert was removed while that in the well was changed daily for 28 days. At Day 28, the inserts containing the cells were removed from their wells, washed with PBS, and incubated at 37° C. for 30 minutes with 1×10^8 CFU S. aureus. Cells were then washed three times with PBS and returned to wells containing 600 μl of ALI medium to regrow. Cells were harvested at multiple time points up to five days after injury for protein or RNA extraction. All cultures were maintained at 37° C. in humidified air containing 5% CO2.
First, the role of Abl kinases in basal cell differentiation in primary human bronchial epithelial cells (HBECs) in air-liquid interface (ALI) cultures was examined. Basal cells were isolated from human donor lungs and plated on polyester transwell inserts at passage 1. Once the cells were 100% confluent (3-4 days after plating), media from the top chamber of the transwell insert was removed to promote differentiation of the basal cells into a pseudostratified ciliated epithelium (FIG. 19A). […] Among these are acetylated α-tubulin and SNTN (ciliated cell marker) and SCGB3A2 (secretory cell marker) (FIG. 19C).
To identify whether Abl kinase inhibition promotes early (Krt5+ cells→Krt8+ cells) or late (Krt8+→acetylated α-tubulin or Scgb1a1+ cells) differentiation, a time course experiment in primary HBEC ALI cultures was conducted. Primary HBECs were plated on polyester transwell inserts and treated with vehicle control or GNF5 24 hours after plating.

Test [3] has as its system mice exposed to S. aureus. The experiment in a line: mouse model of pneumonia induced by nasal insufflation of S. aureus. It counts as in vivo. As to the method:
Bacteria. S. aureus (Ssp. aureus, No. 25923; American Type Culture Collection) was grown as previously described (Suliman H B et al. (2017) Mitochondrial quality control in alveolar epithelial cells damaged by S. aureus pneumonia in mice. American journal of physiology. Lung cellular and molecular physiology 313(4):L699-L709). Dilutions of 5×10^8 CFU were used for mouse experiments, and dilutions of 1×10^8 CFU were used for cell culture experiments. S. pneumoniae (serotype 19, No. 49619; American Type Culture Collection) was grown as previously described (Gomez J C, et al. (2016) Journal of immunology 197(7):2864-2879). Dilutions of 6×10^5 CFU were used for mouse experiments.
CC10 (Scgb1a1)-CreERT; Rosa26R-CAG-farnesylated GFP (Rosa26-fGFP) and SPC (Sftpc)-CreERT2; Rosa26-tdTomato mice were kindly provided by Dr. Mark Onaitis and generated by Dr. Brigid Hogan at Duke University and have been previously described (Rawlins E L, et al. (2009) Cell stem cell 4(6):525-534, Xu X, et al. (2012) Proc Natl Acad Sci USA 109(13):4910-4915). These mice were crossed with Abl1^flox/flox mice (Moresco E M, et al. (2005) J Neurosci 25(26):6105-6118) into a C57BL/6 genetic background. Sox2^tmHoch/J mice (referred to as SOX2-eGFP mice in the text) were purchased from the Jackson Laboratory. Gt(Rosa) 26Sor^tm9(EGFP/Rpl10z)Amc/J (referred to as L10-eGFP in the text) mice were purchased from the Jackson Laboratory and were crossed to CC10-CreERT; Abl1^flox/flox mice into a C57BL/6 genetic background for the TRAP experiments. To induce expression of Cre-recombinase for both TRAP experiments and lineage tracing experiments, 8to 20-week-old male and female mice were injected intraperitoneally four times every other day with 0.25 mg/g body weight Tamoxifen (Sigma-T5648) in corn oil (Spectrum-CO136). Exposure to S. aureus was initiated 15 days after the last dose of Tamoxifen. Alternatively, mice were inoculated with purified Adenovirus5-CC10-Cre virus obtained from the University of Iowa Viral Vector Core Facility and generated by Dr. Anton Berns (Netherlands Cancer Institute). 10 μL of stock virus solution was mixed in 30 μL of Minimum Essential Medium and delivered intranasally twice, three days apart, three weeks prior to induction of S. aureus pneumonia. Mice were anesthetized using 0.3 mg xylazine and […] ketamine intraperitoneally prior to intranasal inoculation with a 50 μL dilution of 5×10^8 S. aureus. The mice were monitored daily for weight loss and signs of respiratory distress and euthanized in an isofluorane chamber at days 0, 1, 2, and 3 after inoculation. All experiments were performed under the Duke University IACUC approved protocols: A098-16-04 and A130-16-06. Male and female mice at different ages (8 to 20 weeks old) were evaluated for differential response to drug (Abl kinase inhibitors and tamoxifen) and/or injury, and no significant effects of age and gender were observed.
Inhibitors. GNF5 (N-(2-Hydroxyethyl)-3-(6-(4-(trifluoromethoxy)phenylamino)pyrimidin-4-yl)benzamide) was synthesized at the Duke University's Small Molecule Synthesis Facility, and validated by LC-MS and 1H-NMR/FT-IR spectra and with cell-based assays that confirm potencies and cell signaling inhibitory activities. For in vivo experiments, GNF5 was prepared in a suspension with 0.5% methylcellulose and 0.5% Tween-80 at a concentration of 10 mg/mL, and mice were treated with either 20 mg/kg, 40 mg/kg, or 100 mg/kg b.i.d. via oral gavage.
Bronchoalveolar lavage preparation and assays. Bronchoalveolar lavage (BAL) fluid was collected immediately after euthanasia three days after exposure to S. aureus as previously described (Suliman H B, et al. (2017) Lung cellular and molecular physiology 313(4):L699-L709). Bilateral BAL was performed using two 1 mL aliquots of sterile PBS with approximately 75-80% retrieval per mouse. […]

The test system of test [4] is Primary HBECs. The experiment in a line: transepithelial electrical resistance assay in ALI cultures of primary HBECs. Format: cell-based, human. The settings on record: vs vehicle control-treated cells. From the text:
Thus, inhibition of the Abl kinases in 3D ALI cultures of primary HBECs promotes basal cell differentiation and enhances barrier function.

Test [5] deals with Primary HBECs. The test can be described thus: primary HBECs pre-treated with Abl kinase inhibitor before exposure to S. aureus, Western blot. Format: cell-based, human. The settings on record: pre-treated 24 hours prior to exposure to S. aureus.
Description: Cell Culture. Primary human bronchial epithelial cells were isolated as previously described (Fulcher M L & Randell S H (2013) Methods Mol Biol 945:109-121) and passage 1 cells were derived from human lungs unsuitable for transplantation from non-smoker organ donors without pre-existing lung disease under protocol #03-1396 approved by the University of North Carolina at Chapel Hill Biomedical Institutional Review Board. Informed consent was obtained from authorized representatives of all organ donors. 30,000 cells were plated into each well of 6.5 mm polyester inserts containing 0.4 μm pores (Sigma-CLS3470) coated with Type IV human placenta collagen (Sigma-C7521). 100 μl of ALI medium was added to the insert and 600 μl of ALI medium was added to the well at the time of plating. At Day 3, ALI medium from the insert was removed while that in the well was changed daily for 28 days. At Day 28, the inserts containing the cells were removed from their wells, washed with PBS, and incubated at 37° C. for 30 minutes with 1×10^8 CFU S. aureus. Cells were then washed three times with PBS and returned to wells containing 600 μl of ALI medium to regrow. […]
Immunoblotting. […] Protein was quantified, and equal amounts of protein was separated by SDS-polyacrylamide gel electrophoresis (BioRad-1610183) and transferred onto 0.2 μm pore nitrocellulose membranes. […]

Each structure is given as a SMILES string.

Data on two compounds can be found in patent publication US12419891B2, “Compositions for the treatment of pathogenic- and/or chemical-induced lung injury and for the treatment of cancer and methods of using same” (Duke University, priority 2019, dated 2025).

Take `O=C1NC(=O)C(c2cn(-c3ccccc3)nc2-c2ccc(F)cc2)N1` (stereo not drawn) [DPH]: in test [1], the “SOX2 (basal cell marker) expression, immunoblot” value was “increased expression of the basal cell marker, SOX2” and the “acetylated α-tubulin (ciliated cell marker) expression, immunoblot” value is reported as “decreased expression of acetylated α-tubulin”. Besides, the “bronchosphere growth: basal cell proliferation and differentiation” value in test [1] (treated three days starting two days after plating) was “reduced bronchosphere growth and differentiation”.

For the compound `Cc1cn(-c2cc(NC(=O)c3ccc(C)c(Nc4nccc(-c5cccnc5)n4)c3)cc(C(F)(F)F)c2)cn1` [nilotinib], in test [2], the “acetylated α-tubulin expression (3D reconstruction)” value is given as “increase in expression of acetylated α-tubulin” and the “acetylated α-tubulin protein expression (Western blot)” value is listed as “increase in protein expression of acetylated α-tubulin”. For the same compound, the lung injury result in test [3] (FIG. 9F, treatment 24 h after injury) is “significant reduction in lung injury”. In addition, the BAL protein concentration result in test [3] (day 3 post-infection, treatment started 24 hours after injury (Post)) is given as “reduction in protein in the airspace”. In test [1], the “SOX2 (basal cell marker) expression, immunoblot” value is recorded as “decrease in the basal cell marker, SOX2” and the “acetylated α-tubulin (ciliated cell marker) expression, immunoblot” value is recorded as “increase in the ciliated cell marker, acetylated α-tubulin”. In addition, in test [1] (vs untreated cells), the “Ki67 (proliferation marker) protein expression” value is listed as “increase in protein expression of the proliferation marker, Ki67”. Besides, in the test with Primary HBECs [4], the “transepithelial electrical resistance across monolayer” value is reported as “increased resistance”. Further, in the test with Primary HBECs [5], the “expression of downstream transcriptional targets of YAP (Birc5, c-Myc, Cyclin D3)” value was “decreased transcript and protein expression”.
